Columns and labels:
[1] = target: Sodium channel protein type 10 subunit alpha (Rattus norvegicus, UniProt Q62968); assay: Inhibition of Nav1.8 channel in rat dorsal root ganglion neurons assessed as blockade of TTX-R current by patch clamp method; format: tissue-based
Rattus norvegicus = assay: Analgesic activity in ip dosed rat chronic constriction injury model of mechanical allodynia; format: functional

Sodium channel protein type 10 subunit alpha, sequence (Q62968 whole entry): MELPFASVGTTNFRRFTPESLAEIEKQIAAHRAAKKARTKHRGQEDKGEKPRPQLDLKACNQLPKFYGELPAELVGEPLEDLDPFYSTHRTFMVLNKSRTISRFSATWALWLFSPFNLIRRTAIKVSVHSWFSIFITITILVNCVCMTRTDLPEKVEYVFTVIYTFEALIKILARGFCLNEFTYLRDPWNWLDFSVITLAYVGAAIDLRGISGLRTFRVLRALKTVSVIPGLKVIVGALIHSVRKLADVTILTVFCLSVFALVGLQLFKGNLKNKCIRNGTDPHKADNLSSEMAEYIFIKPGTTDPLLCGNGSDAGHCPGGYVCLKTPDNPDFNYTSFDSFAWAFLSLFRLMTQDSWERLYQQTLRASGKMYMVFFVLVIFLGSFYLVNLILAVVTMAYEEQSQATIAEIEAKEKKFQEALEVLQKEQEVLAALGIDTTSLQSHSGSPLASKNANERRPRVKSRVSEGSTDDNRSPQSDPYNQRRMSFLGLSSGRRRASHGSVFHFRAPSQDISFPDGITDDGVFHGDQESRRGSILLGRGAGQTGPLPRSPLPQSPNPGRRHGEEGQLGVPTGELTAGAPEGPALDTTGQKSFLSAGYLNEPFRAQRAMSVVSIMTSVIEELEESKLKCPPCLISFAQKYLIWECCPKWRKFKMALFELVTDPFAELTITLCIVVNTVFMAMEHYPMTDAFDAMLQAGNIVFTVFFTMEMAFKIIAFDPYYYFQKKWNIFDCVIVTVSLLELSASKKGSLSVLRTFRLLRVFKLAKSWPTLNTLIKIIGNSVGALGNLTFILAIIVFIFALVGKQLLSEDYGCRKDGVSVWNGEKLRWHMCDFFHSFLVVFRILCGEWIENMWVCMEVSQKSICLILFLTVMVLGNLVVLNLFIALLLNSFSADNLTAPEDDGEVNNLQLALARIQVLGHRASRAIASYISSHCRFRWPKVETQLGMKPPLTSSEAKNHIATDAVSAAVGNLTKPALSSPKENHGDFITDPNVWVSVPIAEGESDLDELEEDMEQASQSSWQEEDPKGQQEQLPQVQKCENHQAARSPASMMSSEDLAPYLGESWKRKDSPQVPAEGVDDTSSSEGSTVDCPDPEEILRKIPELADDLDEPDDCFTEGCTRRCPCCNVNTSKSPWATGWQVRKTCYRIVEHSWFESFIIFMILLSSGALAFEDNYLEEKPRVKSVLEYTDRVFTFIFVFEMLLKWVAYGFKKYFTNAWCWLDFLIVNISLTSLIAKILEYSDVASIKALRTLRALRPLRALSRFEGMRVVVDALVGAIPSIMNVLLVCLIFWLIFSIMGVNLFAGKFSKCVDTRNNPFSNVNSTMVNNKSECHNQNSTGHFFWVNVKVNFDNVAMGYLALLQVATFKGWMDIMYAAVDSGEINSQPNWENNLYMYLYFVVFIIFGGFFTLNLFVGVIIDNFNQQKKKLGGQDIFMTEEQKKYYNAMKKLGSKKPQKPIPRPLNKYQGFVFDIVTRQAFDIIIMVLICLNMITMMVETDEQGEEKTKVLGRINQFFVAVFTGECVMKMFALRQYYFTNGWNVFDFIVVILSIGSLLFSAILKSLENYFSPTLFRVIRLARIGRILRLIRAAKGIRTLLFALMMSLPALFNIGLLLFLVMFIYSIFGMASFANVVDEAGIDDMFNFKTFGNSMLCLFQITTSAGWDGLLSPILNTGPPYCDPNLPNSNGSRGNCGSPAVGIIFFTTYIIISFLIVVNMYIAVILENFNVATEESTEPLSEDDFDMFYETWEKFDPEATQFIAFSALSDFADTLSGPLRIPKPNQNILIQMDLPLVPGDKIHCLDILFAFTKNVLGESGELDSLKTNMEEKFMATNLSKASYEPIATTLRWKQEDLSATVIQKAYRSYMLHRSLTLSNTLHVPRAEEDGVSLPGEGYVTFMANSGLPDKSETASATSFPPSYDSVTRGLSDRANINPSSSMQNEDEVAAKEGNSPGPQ

Compound	IC50 [1]	ED50 (Rattus norvegicus)
Cc1cccc(C)c1OCC(C)N (stereo not drawn) [MEXILETINE]	> 30 µM	
NCC1(CC(=O)O)CCCCC1 [GABAPENTIN]		40 mg/kg
Nc1nnc(-c2cccc(Cl)c2Cl)c(N)n1 [LAMOTRIGINE]		20 mg/kg

From ChEMBL document CHEMBL1142222, “A-803467, a potent and selective Nav1.8 sodium channel blocker, attenuates neuropathic and inflammatory pain in the rat” (Proc Natl Acad Sci U S A, 2007)
